In EP4740933A1, “CLEANING COMPOSITION AND USE THEREOF” (Suzhou Oulit Biopharm Co., Ltd., priority 2023, dated 2025):
Several values for one entry are separate records, joined by “and”; a condition that tells them apart may be missing. Equal entries are not always repeated. Where two headings read alike, the source gives them in different places.

Legend:
[1] = system: Reconstructed Human Epidermis; test: In vitro skin irritation: reconstructed human epidermis test (OECD TG 439); assay type: cell-based; parameters: Viability Mean: concentration or dose not given beside the values
[2] = system: Bovine Corneal; test: Eye irritation: Bovine Corneal Opacity and Permeability Test (OECD TG 437); conditions: positive control, no test concentration printed (/)
Text: Basis: Bovine Corneal Opacity and Permeability Test, OECD TG 437 (2020).

[3] = Foaming test, modified Ross-Miles method (GB/T7462-1994); assay type: physicochemical; conditions: 2.5 g/L, 50 ± 0.5 °C
Protocol: Conditions: test solution concentration: 2.5 g/L; test temperature: 50 ± 0.5 °C; test water: soft water/hard water.

Compound	IL-1α content [1]	Viability Mean [1]	Foam volume at 30 s ([3]; soft water)	Foam volume at 3 min ([3]; soft water)	Foam volume at 5 min ([3]; soft water)	other results
CCCCCCCCCCCC(=O)N[C@@H](C)C(=O)O.N=C(N)NCCC[C@H](N)C(=O)O [LA-Arg]	3.5 ± 0.38 pg/mL	97.40%				
CCCCCCCCCCCC(=O)NC(C)C(=O)[O-].[Na+] (stereo not shown) [LA-NaOH]	3.88 ± 5.28 pg/mL	86.99%				
CCCCCCCCCCCC(=O)N[C@@H](C)C(=O)O [Lauroyl alanine (LA), Lauroyl alanine]	2.07 ± 0.59 pg/mL	95.52%				
CCCCCCCCCCCCOS(=O)(=O)[O-].[Na+] [Positive control (PC)]	89.45 ± 10.06 pg/mL	4.03%				
CCO [Positive control (absolute ethanol), absolute ethanol]						In vitro irritancy score (IVIS) [2]: 32.3545
CCCCCCCCCCCCOS(=O)(=O)[O-].[Na+] [Sodium dodecyl sulfate (K12), Sodium dodecyl sulfate]	96.26 ± 3.21 pg/mL					Viability Mean ([1]; human): 40.79%
Lauroyl alanine-arginine			380 mL	340 mL	335 mL	Foam volume at 30 s ([3]; hard water): 570 mL and 580 mL; Foam volume at 3 min ([3]; hard water): 540 mL and 560 mL and 565 mL; Foam volume at 5 min ([3]; hard water): 530 mL and 545 mL and 550 mL
Sodium laureth sulfate [Sodium laureth sulfate (AES)]	20.59 ± 5.27 pg/mL	57.12%	310 mL	250 mL	210 mL	
potassium cocoyl glycinate [GCK30]			430 mL	390 mL	360 mL	
sodium cocoyl alaninate [ACS30]			330 mL	200 mL	140 mL	
sodium cocoyl glycinate [GC30]			460 mL	430 mL	400 mL	
sodium cocoylmethyl taurate [CMT-35]			310 mL	260 mL	230 mL	
